Laboratory results reported in patent publication US20260062422A1 (Halda Therapeutics OpCo, Inc., priority 2022, published 2026).

Experiments:
[1] = system: T-Rex 293 cell line SC3 cells lacking increased expression of androgen receptor protein; assay: Cellular growth inhibition, T-Rex 293 SC3 cells without doxycycline, CellTiter-Glo; format: cell-based; settings: T-Rex 293 SC3 cells not exposed to doxycycline, CellTiter-Glo 2.0
Description: (§1) The following types of cells were prepared for this experiment: (i) a T-Rex 293 cell line having increased expression of androgen receptor protein due to exposure to doxycycline and (ii) a T-Rex 293 cell line lacking increased expression of androgen receptor protein. Ability of the test compounds to inhibit proliferation of the foregoing cell types was evaluated according to the procedures set forth below.
(§2) The doxycycline-inducible androgen receptor protein expressing cell line was established using the following protocol: T-Rex 293 cells were purchased from Invitrogen (Cat #R71007) and transfected using Lipofectamine 2000 with the wild-type androgen receptor protein sequence cloned into the pcDNA4/TO vector. Transfected cells were selected using 400 μg/mL Zeocin (Invitrogen Cat #R25001). Following selection, single clones were raised and maintained in Dulbecco's Modified Eagle Medium (DMEM) supplemented with 10% w/w Tetracycline-free fetal bovine serum (FBS) and 250 μg/mL Zeocin. Clones were analyzed for expression of androgen receptor protein in the presence and absence of 10 ng/mL doxycycline (Sigma Cat #D9891), and a single doxycycline-inducible clone (hereinafter “SC3”) was selected for use in downstream assays.
(§3) The SC3 cells were seeded on poly-D-lysine coated, black clear-bottom 384-well plates at 2500/well, in 25 μL Phenol Red Free Dulbecco's Modified Eagle Medium (DMEM) supplemented with 10% w/w charcoal-dextran treated fetal bovine serum (FBS) and 1% w/w pen-strep, with or without 10 ng/mL doxycycline. Pen-Strep is a commercially available mixture of penicillin G and streptomycin, which is used in mammalian cell culture media to prevent bacterial contamination. Phenol Red Free Dulbecco's Modified Eagle Medium (DMEM) supplemented with 10% w/w charcoal-dextran treated fetal bovine serum (FBS) and 1% w/w pen-strep, with or without 10 ng/mL doxycycline is herein referred to as Treatment Medium. Following seeding of cells in the plates, the plates were spun at 300×g for 30 seconds, then equilibrated to room temperature for 30 minutes, and then deposited in a humidified tissue culture incubator maintained at 37° C. with 5% CO2.
(§4) At 24 hours after seeding of the cells, dilutions of test compound were prepared in DMSO and dissolved in Treatment Medium, to achieve a final DMSO concentration of 0.5% w/w, thereby providing the Test Compound Solution. A 25 μL aliquot of the Test Compound Solution was added to cells in the well plates. An equal volume of a solution containing DMSO and Treatment Medium was used as a negative control. Following treatment of cells with Test Compound Solution or said equal volume of a solution containing DMSO and Treatment Medium, the plates were spun at 300×g for 30 seconds, and then left in an incubator for 72 hours. At the end of the treatment duration, cell viability was quantified with CellTiter-Glo 2.0 reagent (Promega Cat #G9243). For this purpose, plates were equilibrated to room temperature for 30 minutes, and then 25 μL of CellTiter-Glo 2.0 reagent was added to cells in the plate wells. Plates were then agitated on a shaker for two minutes at 500 rpm and subsequently incubated at room temperature for 10 minutes. Following incubation, the plates were spun at 3000×g for 30 seconds, then sealed with an optical adhesive cover, and luminescence readings were measured with an EnVision Plate Reader. Data was normalized using zero luminescence for baseline. A four-parameter non-linear regression curve fit was applied to dose-response data in GraphPad Prism data analysis software to determine the half-maximal growth inhibitory concentration (GI50) for each test compound.

VCaP cells = assay: Cellular growth inhibition assay for VCaP cells, CellTiter-Glo; format: cell-based, human; settings: 72 hours treatment, CellTiter-Glo 2.0
Description: VCaP cells were purchased from American Type Cell Culture (ATCC Cat #CRL2876) and then seeded on poly-D-lysine coated, black clear-bottom 384-well plates at 5000/well in 25 μL Dulbecco's Modified Eagle Medium (DMEM) supplemented with 10% w/w Fetal bovine serum (FBS) and 1% w/w Pen-Strep. Pen-Strep is a commercially available mixture of penicillin G and streptomycin, which is used in mammalian cell culture media to prevent bacterial contamination. Dulbecco's Modified Eagle Medium (DMEM) supplemented with 10% w/w fetal bovine serum (FBS) and 1% w/w Pen-Strep is herein referred to as Treatment Medium. Following seeding of cells in the plates, the plates were spun at 300×g for 30 seconds, then equilibrated to room temperature for 30 minutes, and then deposited in a humidified tissue culture incubator maintained at 37° C. with 5% CO2.
At 24 hours after seeding of the cells, dilutions of test compound were prepared in DMSO and dissolved in Treatment Medium, to achieve a final DMSO concentration of 0.5% w/w, thereby providing the Test Compound Solution. A 25 μL aliquot of the Test Compound Solution was added to cells in the well plates. An equal volume of a solution containing DMSO and Treatment Medium was used as a negative control. Following treatment of cells with Test Compound Solution or said equal volume of a solution containing DMSO and Treatment Medium, the plates were spun at 300×g for 30 seconds, and then left in an incubator for 72 hours.
At the end of the treatment duration, cell viability was quantified with CellTiter-Glo 2.0 reagent (Promega Cat #G9243). For this purpose, plates were equilibrated to room temperature for 30 minutes, and then 25 μL of CellTiter-Glo 2.0 reagent was added to cells in the plate wells. Plates were then agitated on a shaker for two minutes at 500 rpm and subsequently incubated at room temperature for 10 minutes. Following incubation, the plates were spun at 3000×g for 30 seconds, then sealed with an optical adhesive cover, and luminescence readings were measured with an EnVision Plate Reader.
Data was normalized using zero luminescence for baseline. A four-parameter non-linear regression curve fit was applied to dose-response data in GraphPad Prism data analysis software to determine the half-maximal growth inhibitory concentration (GI50) for each test compound.

T47D cells = assay: Cellular growth inhibition assay for T47D cells, CellTiter-Glo; format: cell-based, human; settings: 72 hours treatment, CellTiter-Glo 2.0 cell viability
Summary of the method: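 Growth inhibition as GI50, fitted with four parameters to CellTiter-Glo luminescence after 72 h of compound exposure (0.5% DMSO). Cells were T47D, grown in insulin-supplemented (0.2 units/mL) DMEM with 10% FBS and treated one day post-seeding.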

[2] = system: T-Rex 293 cell line SC3 cells having increased expression of androgen receptor protein due to exposure to doxycycline; assay: Cellular growth inhibition, T-Rex 293 SC3 cells with doxycycline (androgen receptor induced), CellTiter-Glo; format: cell-based; settings: T-Rex 293 SC3 cells with 10 ng/mL doxycycline (increased androgen receptor expression)
Description: as §1, §2, §3, §4

Cc1sc2c(c1C)C(c1ccc(CC(=O)NCCc3ncc(C(=O)N[C@H]4C(C)(C)[C@H](Oc5ccc(C#N)c(Cl)c5)C4(C)C)cn3)cc1)=N[C@@H](Cc1ncco1)c1nnc(C)n1-2 [Compound I-440]
GI50 ([1]; 72 h): > 3 µM | GI50 (VCaP cells; Homo sapiens, VCaP, 72 h): 0.5 to 1.5 µM | GI50 (T47D cells; Homo sapiens, T47D, 72 h): 1.5 to 3 µM

Cc1sc2c(c1C)C(c1ccc(N3[C@@H]4CC[C@H]3C[C@@H](Nc3ncc(C(=O)N[C@H]5C(C)(C)[C@H](Oc6ccc(C#N)c(Cl)c6)C5(C)C)cn3)C4)cc1)=N[C@@H](Cc1ncco1)c1nnc(C)n1-2 [Compound I-631]
GI50 ([2]; 72 hours): < 0.5 µM | GI50 ([1]; 72 hours): > 3 µM

Cc1sc2c(c1C)C(c1ccc(N3CCC[C@@H](CNc4ncc(C(=O)N[C@H]5C(C)(C)[C@H](Oc6ccc(C#N)c(Cl)c6)C5(C)C)cn4)C3)cc1)=NC(Cc1ncco1)c1nnc(C)n1-2 (some centres unmarked) [Compound I-662]
GI50 ([1]; 72 h): 0.5 to 1.5 µM | GI50 (VCaP cells; Homo sapiens, VCaP, 72 h): < 0.5 µM

Cc1sc2c(c1C)C(c1ccc(N3CC4(CCN(c5ncc(C(=O)N[C@H]6C(C)(C)[C@H](Oc7ccc(C#N)c(Cl)c7)C6(C)C)cn5)CC4)C3)cc1)=NC(Cc1ncco1)c1nnc(C)n1-2 (some centres unmarked) [Compound I-625]
GI50 ([2]; 72 h): < 0.5 µM | GI50 ([1]; 72 h): > 3 µM

Cc1sc2c(c1C)C(c1ccc(NCCC3CCN(c4ncc(C(=O)N[C@H]5C(C)(C)[C@H](Oc6ccc(C#N)c(Cl)c6)C5(C)C)cn4)CC3)cc1)=NC(Cc1ncco1)c1nnc(C)n1-2 (some centres unmarked) [Compound I-627]
GI50 ([2]; 72 h): < 0.5 µM | GI50 ([1]; 72 h): < 0.5 µM

Cc1sc2c(c1C)C(c1ccc(N3CC(N4CCN(c5ncc(C(=O)N[C@H]6C(C)(C)[C@H](Oc7ccc(C#N)c(Cl)c7)C6(C)C)cn5)CC4)C3)cc1)=NC(Cc1ncco1)c1nnc(C)n1-2 (some centres unmarked) [Compound I-628]
GI50 ([2]; 72 h): < 0.5 µM | GI50 ([1]; 72 hours): > 3 µM

Cc1sc2c(c1C)C(c1ccc(N[C@H]3CC[C@H](Nc4ncc(C(=O)N[C@H]5C(C)(C)[C@H](Oc6ccc(C#N)c(Cl)c6)C5(C)C)cn4)CC3)cc1)=N[C@@H](Cc1ncco1)c1nnc(C)n1-2 [Compound I-663]
GI50 ([1]; 72 h): < 0.5 µM | GI50 (VCaP cells; Homo sapiens, VCaP, 72 h): < 0.5 µM

Cc1sc2c(c1C)C(c1ccc(N3CCC4(CCCN(c5ncc(C(=O)N[C@H]6C(C)(C)[C@H](Oc7ccc(C#N)c(Cl)c7)C6(C)C)cn5)C4)C3)cc1)=N[C@@H](Cc1ncco1)c1nnc(C)n1-2 (some centres unmarked) [Compound I-632]
GI50 ([2]; 72 h): < 0.5 µM | GI50 ([1]; 72 h): > 3 µM

Cc1sc2c(c1C)C(c1ccc(N3CC[C@H](Nc4ncc(C(=O)N[C@H]5C(C)(C)[C@H](Oc6ccc(C#N)c(Cl)c6)C5(C)C)cn4)C3)cc1)=N[C@@H](Cc1ncco1)c1nnc(C)n1-2 [Compound I-624]
GI50 ([2]; 72 h): < 0.5 µM | GI50 ([1]; 72 h): < 0.5 µM

Cc1sc2c(c1C)C(c1ccc(N3C[C@H]4C[C@@H]3CN4c3ncc(C(=O)N[C@H]4C(C)(C)[C@H](Oc5ccc(C#N)c(Cl)c5)C4(C)C)cn3)cc1)=NC(Cc1ncco1)c1nnc(C)n1-2 (some centres unmarked) [Compound I-665]
GI50 ([1]; 72 h): < 0.5 µM | GI50 (VCaP cells; Homo sapiens, VCaP, 72 h): < 0.5 µM

Cc1sc2c(c1C)C(c1ccc(N3C[C@H](F)C[C@@H](Nc4ncc(C(=O)N[C@H]5C(C)(C)[C@H](Oc6ccc(C#N)c(Cl)c6)C5(C)C)cn4)C3)cc1)=NC(Cc1ncco1)c1nnc(C)n1-2 (some centres unmarked) [Compound I-664]
GI50 ([1]; 72 h): < 0.5 µM | GI50 (VCaP cells; Homo sapiens, VCaP, 72 h): < 0.5 µM

Cc1sc2c(c1C)C(c1ccc(OC[C@@H]3CCCN(c4cnc(C(=O)N[C@H]5C(C)(C)[C@H](Oc6ccc(C#N)c(Cl)c6)C5(C)C)cn4)C3)cc1)=N[C@@H](C)c1nnc(C)n1-2 [Compound I-588]
GI50 ([2]; 72 h): < 0.5 µM | GI50 ([1]; 72 h): > 3 µM | GI50 (T47D cells; Homo sapiens, T47D, 72 h): 0.5 to 1.5 µM

Cc1sc2c(c1C)C(c1ccc(N[C@H]3CCN(c4ncc(C(=O)N[C@H]5C(C)(C)[C@H](Oc6ccc(C#N)c(Cl)c6)C5(C)C)cn4)C3)cc1)=NC(Cc1ncco1)c1nnc(C)n1-2 (some centres unmarked) [Compound I-622]
GI50 ([2]; 72 h): < 0.5 µM | GI50 ([1]; 72 h): < 0.5 µM

Cc1sc2c(c1C)C(c1ccc(CC3CC(OC4CCN(c5ncc(C(=O)N[C@H]6C(C)(C)[C@H](Oc7ccc(C#N)c(Cl)c7)C6(C)C)cn5)CC4)C3)cc1)=N[C@@H](C)c1nnc(C)n1-2 (some centres unmarked) [Compound I-446]
GI50 ([1]; 72 hours): > 3 µM | GI50 (VCaP cells): 1.5 to 3 µM | GI50 (T47D cells): < 0.5 µM

Cc1sc2c(c1C)C(c1ccc(N3CCC(C)(Nc4ncc(C(=O)N[C@H]5C(C)(C)[C@H](Oc6ccc(C#N)c(Cl)c6)C5(C)C)cn4)CC3)cc1)=N[C@@H](Cc1ncco1)c1nnc(C)n1-2 [Compound I-626]
GI50 ([2]; 72 h): < 0.5 µM | GI50 ([1]; 72 h): > 3 µM

Cc1sc2c(c1C)C(c1ccc(NCC3CC4(C3)CN(c3ncc(C(=O)N[C@H]5C(C)(C)[C@H](Oc6ccc(C#N)c(Cl)c6)C5(C)C)cn3)C4)cc1)=N[C@@H](Cc1ncco1)c1nnc(C)n1-2 [Compound I-660]
GI50 ([1]; 72 h): < 0.5 µM | GI50 (VCaP cells; Homo sapiens, VCaP, 72 h): < 0.5 µM | GI50 (T47D cells; Homo sapiens, T47D, 72 h): < 0.5 µM

Cc1sc2c(c1C)C(c1ccc(NC3C[C@@H]4CCC[C@@H](C3)N4c3ncc(C(=O)N[C@H]4C(C)(C)[C@H](Oc5ccc(C#N)c(Cl)c5)C4(C)C)cn3)cc1)=N[C@@H](Cc1ncco1)c1nnc(C)n1-2 (some centres unmarked) [Compound I-629]
GI50 ([2]; 72 hours): < 0.5 µM | GI50 ([1]; 72 hours): > 3 µM

Cc1sc2c(c1C)C(c1ccc(NCCN3CCN(c4ncc(C(=O)N[C@H]5C(C)(C)[C@H](Oc6ccc(C#N)c(Cl)c6)C5(C)C)cn4)CC3)cc1)=NC(Cc1ncco1)c1nnc(C)n1-2 (some centres unmarked) [Compound I-661]
GI50 ([1]; 72 h): < 0.5 µM | GI50 (VCaP cells; Homo sapiens, VCaP, 72 h): < 0.5 µM

Cc1sc2c(c1C)C(c1ccc(N[C@H]3CCN(c4ncc(C(=O)N[C@H]5C(C)(C)[C@H](Oc6ccc(C#N)c(Cl)c6)C5(C)C)cn4)C[C@@H]3F)cc1)=NC(Cc1ncco1)c1nnc(C)n1-2 (some centres unmarked) [Compound I-630]
GI50 ([2]; 72 h): < 0.5 µM | GI50 ([1]; 72 h): < 0.5 µM

Cc1sc2c(c1C)C(c1ccc(N[C@H]3CC[C@@H](Nc4ncc(C(=O)N[C@H]5C(C)(C)[C@H](Oc6ccc(C#N)c(Cl)c6)C5(C)C)cn4)CC3)cc1)=N[C@@H](Cc1ncco1)c1nnc(C)n1-2 [Compound I-623]
GI50 ([2]; 72 h): < 0.5 µM | GI50 ([1]; 72 h): < 0.5 µM
